According to US8138170B2, “Immunosuppressive Ningalin compounds” (Memorial Sloan-Kettering Cancer Center, priority 2004, dated 2012):
Several values for one entry are separate records, joined by “and”; a condition that tells them apart may be missing. Identical values can stand only once.

Tests used:
human lymphocytes = assay: Inhibition of PHA-stimulated lymphocyte proliferation ([3H]thymidine incorporation); format: cell-based; settings: PHA-stimulated human lymphocyte proliferation; read-out: Immunosuppressive Effect (IC50 in μM) [B]
Description: Phytohemagglutinin (phytostigma or “PHA”) induces proliferation of human lymphocytes.

[1] = Cytotoxicity measured by cell proliferation inhibition; format: cell-based
[2] = tested on: Lewis (LEW) heart allografts; assay: Heterotopic heart transplantation in rats; format: in vivo, Rat ACI recipients
Description: (§1) Heterotopic heart transplantation was performed in rats and mice. In brief, heart transplantation was performed by previously described modified method. Hearts harvested from donors were perfused with chilled saline and immediately transplanted to recipients under full anesthesia. Suture 10-0 in rats and 12-0 in mice (Ethicon; Somerville, N.J.) was used to perform anastomosis of aorta to aorta and pulmonary artery to vena cava. Heartbeat was evaluated daily and the day of complete cessation was considered rejection. Animals that died within three days after transplantation were excluded from the analysis (less than 5%).
Rat ACI (RT1*) recipients of Lewis (LEW; RT1^1) heart allografts were untreated or were treated for 7 days by daily (QDx7) i.p. injections with 20 mg/kg N5. Untreated recipients rejected heart allografts in a mean survival time (MST) of 8.40±0.55 (n=5).

C57BL/6 heart allografts = assay: Heterotopic heart transplantation in mice; format: in vivo, Balb/c mice
Description: as §1
Mice were also transplanted with heart allografts. In particular, untreated Balb/c (H-2^d) recipients rejected C57BL/6 (H-2^b) heart allografts at a MST of 7.8±0.84 days (n=5). Treatment with 40 mg/kg N5, QDx7, extended heart allograft survival to 13.33±2.52 days, which increased life span 71% (n=3; p<0.03).
Mice heart allografts were treated with 20 mg/kg of N3, QDx7, i.p. In particular, untreated Balb/c (H-2^d) recipients rejected C57BL/6 ([…]) heart allografts at a MST of […] days (n=5). Treatment with 20 mg/kg of N3 (i.e., one-half of dose of N5) extended heart allograft survival to 18.75±3.86 days (n=4; p<0.0005), an increase in lifespan of 140%.

LEW kidney allografts = assay: Orthotopic kidney transplantation in rats; format: in vivo, ACI rats
Description: Orthotopic kidney transplantation was performed in rats. In particular, the left kidney of donor was perfused through the aorta with heparinized saline (4° C.) and then harvested after the renal artery, renal vein, and ureter were cut off. End-to-end anastomosis of donor and recipient renal arteries and veins were performed using 10-0 nylon suture (Ethicon; Somerville, N.J.). The recipients' native kidneys were removed on the day of transplantation. Animals that died within three days after transplantation were excluded from the analysis (less than 5%).
The effect of N5 (administered in DMSO, 20 mg/kg, i.p. QDx7) on kidney allograft survival was examined. Although untreated ACI recipients acutely rejected LEW kidney allografts at 8.8±0.75 days, a 7-day i.p. daily treatment extended survivals to 26.50±2.12 days, which increased lifespan 200% (n=2; p<0.03).

[3] = tested on: carrageenan-induced paw edema; assay: Carrageenan-induced paw edema; format: in vivo, B6D2F1 mice; settings: for Pedis Area: individual mice 1-4; for Pedis Area, Mean: mean of 4 mice
Description: Carrageene (1%, 30 μl) was injected i.m. into the pedis of B6D2F1 mice (4 mice/group) to induced edemic inflammation at 0 hours. N3, N5 (i.p. injection) or oral administration of aspirin 500 mg/kg, or topical application of hydrocortisone cream (1%) or Lidex cream (0.05%) to the pedis skins were given at −1, 6, 12 and 24 hours. The control mice received dimethylsulfoxide (the vehicle of ningalins). The pedis areas (in mm^2) were measured at 0, 3, 6, 12, 24, 36 and 48 hours.

## COc1ccc(CCn2c(C(=O)N(C)C)c(-c3ccc(OC)c(OC)c3)c3c4cc(OC)c(OC)cc4oc(=O)c32)cc1OC [Ningalin N5, 1-(3,4-Dimethoxy-phenyl)-3-[2-(3,4-dimethoxy-phenyl)-ethyl]-7,8-dimethoxy-4-oxo-3,4-dihydro-5-oxa-3-aza-cyclopenta[α]naphthalene-2-carboxylic acid dimethylamide]
Human lymphocytes
  IC50: 0.17 ± 0.01 µM
[1]
  IC50: 17.1 ± 4.6 µM
[2]; ACI recipients of LEW heart, N5 20 mg/kg i.p. QDx7, 20 mg/kg
  MST ± SD days (heart allograft survival): 18.67±2.52 days and 18.67 ± 2.5 days
[2]; heart allograft, N5 20 mg/kg i.p. QDx7, vs untreated
  increased life span: 122%
[2]; heart, N5 20 mg/kg, 20 mg/kg
  Survival days (individual animals): 18 days and 19 days and 21 days
C57BL/6 heart allografts; B6 heart to Balb/c, N5 40 mg/kg QDx7, 40 mg/kg
  MST ± SD days (heart allograft survival): 13.33±2.52 days and 13.35 ± 2.52 days
C57BL/6 heart allografts; heart allograft, N5 40 mg/kg QDx7, vs untreated
  increased life span: 71%
C57BL/6 heart allografts; heart, N5 40 mg/kg, 40 mg/kg
  Survival days (individual animals): 11 days and 13 days and 16 days
LEW kidney allografts; ACI recipients of LEW kidney, N5 in DMSO 20 mg/kg i.p. QDx7
  MST ± SD days (kidney allograft survival): 26.50±2.12 days
LEW kidney allografts; kidney allograft, N5 20 mg/kg i.p. QDx7, vs untreated
  increased life span: 200%
LEW kidney allografts; kidney, N5 20 mg/kg, 20 mg/kg
  Survival days (individual animals): 26 days and 28 days
[3]; 0 hr, aspirin 500 mg/kg oral, N3 100 mg/kg i.p., N5 50 mg/kg i.p., hydrocortisone cream 1%, Lidex cream 0.05% topical, given at −1, 6, 12, 24 hours
  Pedis Area: 100 mm^2
[3]; 0 hr, doses as E35
  Pedis Area, Mean: 100 mm^2
[3]; 3 hr, doses as E35
  Pedis Area: 137.1 mm^2 and 139.2 mm^2 and 143.9 mm^2 and 132 mm^2
  Pedis Area, Mean: 138.1 mm^2
[3]; 6 hr, doses as E35
  Pedis Area: 138.1 mm^2 and 144.3 mm^2 and 146.9 mm^2 and 145.4 mm^2
  Pedis Area, Mean: 143.7 mm^2
[3]; 12 hr, doses as E35
  Pedis Area: 125.7 mm^2 and 124.7 mm^2 and 140.8 mm^2 and 141.2 mm^2
  Pedis Area, Mean: 133.1 mm^2
[3]; 24 hr, doses as E35
  Pedis Area: 125.7 mm^2 and 161.6 mm^2 and 128.6 mm^2 and 142.3 mm^2
  Pedis Area, Mean: 129.6 mm^2
[3]; 36 hr, doses as E35
  Pedis Area: 120 mm^2 and 118.6 mm^2 and 127.6 mm^2 and 142.3 mm^2
  Pedis Area, Mean: 127.1 mm^2
[3]; 48 hr, doses as E35
  Pedis Area: 120 mm^2 and 117.5 mm^2 and 130.6 mm^2 and 142.3 mm^2
  Pedis Area, Mean: 127.6 mm^2
[3]; N5 50 mg/kg i.p., N3 100 mg/kg i.p., all drugs: at 12-48 hours
  anti-inflammatory effect (FIG. 3): produced an anti-inflammatory effect
